Data reported in PMC6591397, “Functional Roles of Metabolic Intermediates in Regulating the Human Mitochondrial NAD(P)^+-Dependent Malic Enzyme” (Scientific Reports, 2019).
Read-outs that look alike come from different tables or passages of the source.

Columns and labels:
lung tumor = test system: lung tumor; set-up: method as in PMID 24957098; settings: in vivo; cited from earlier work
[1] = test system: human non-small cell lung carcinoma H1299 cancer cells; set-up: method as in PMID 26008970; settings: cited from earlier work
m-NAD(P)-ME [2] = target: T1, m-NAD(P)-ME (Homo sapiens, UniProt P23368); experiment: Size distribution analysis by analytical ultracentrifugation: monomer-dimer-tetramer equilibrium with different ligands; assay type: binding; settings: NAD+-bound enzyme vs apoenzyme
T1 construct: made in house; host or cells: E. coli BL21 (pRH281 vector, trp promoter)
Method: All sedimentation velocity data were globally fitted by a monomer-dimer-tetramer equilibrium model by the software program of SEDPHAT[34]. The parameters protein partial specific volume, solvent density and viscosity were calculated with the [sequence] software program[35].

m-NAD(P)-ME [3] = target: T1, m-NAD(P)-ME; experiment: Quaternary structure analysis by native gel electrophoresis; assay type: binding; settings: 8 μg enzyme; 0.4 or 2 mM NAD+, 0.5 or 2 mM ATP
Method: The native gel was running under 110 Voltage with a running buffer (25 mM Tris-HCl and 192 mM glycine, pH8.3) at 4 °C. After electrophoresis, protein was detected by staining with the Coomassie brilliant blue R-250.
Figure S1. Quaternary structure of m-NAD(P)-ME determined by the native gel electrophoresis. The dimer-tetramer distribution of m-NAD(P)-ME was presented on the 3-12% Bis-Tris Native PAGE (NativePAGE^TM Novex®, Life Technologies).

[4] = target: human m-NAD(P)-ME WT and the exosite mutants; experiment: Size distribution analysis by analytical ultracentrifugation of WT and exosite mutants, protein only, with NAD+ or with ATP; assay type: binding; settings: PBS
Method: Size distribution of the monomer-dimer-tetramer equilibrium of the enzyme was monitored using a Beckman Optima XL-A analytical ultracentrifuge instrument. A protein sample (380 µl) and reference buffer (400 µl) were loaded into a well-assembled cell with a double-sector centerpiece. Experiments were performed with an An-50Ti rotor at 42,000 rpm and 20 °C for 3 to 4 hours. The scans for sedimentation velocity data were monitored by the UV absorbance at 280 nm with a 480 s interval time and a 0.002 cm step size in continuous distribution mode. Using the SEDFIT 9.4c software[31]–[34], the size distribution of the enzyme was analyzed with a resolution corresponding to N = 200 to cover the range of sedimentation coefficient (S) values from approximately 0.1 to 20, a confidence level of p = 0.95, and a best-fit average anhydrous frictional ratio (f/f0). The dissociation constants of monomer-dimer-tetramer self-association model were globally analyzed by using the SEDPHAT software.
All sedimentation velocity data were globally fitted by a monomer-dimer-tetramer equilibrium model by the software program of SEDPHAT[34]. The parameters protein partial specific volume, solvent density and viscosity were calculated with the […] software program.
Figure 4 Continuous sedimentation coefficient distribution of human m-NAD(P)-ME WT and the exosite mutants. The enzyme concentrations were fixed at 1.6, 4.7, and 14.2 μM in PBS. […] (a) ME2_WT; (b) ME2_H154V; (c) ME2_K156A; (d) ME2_G192A; (e) ME2_R194N; (f) ME2_R197E; (g) ME2_R197D.
Figure 5 Continuous sedimentation coefficient distribution of human m-NAD(P)-ME WT and the exosite mutants. The enzyme concentrations were fixed at 1.6, 4.7, and 14.2 μM in PBS. […] (a) ME2_N482G; (b) ME2_N482A; (c) ME2_R542V; (d) ME2_Y552F; (e) ME2_R556Q; (f) ME2_R556V.

[5] = test system: human m-NAD(P)-ME WT and exosite mutants; experiment: Enzyme kinetic assay (NADH production, absorbance at 340 nm) of WT and exosite mutants; assay type: biochemical; settings: for K0.5,malate / Km / kcat: pH 7.4
Method: The ME reaction was measured with the production rate of NADH or NADPH via the absorbance at 340 nm. The reaction mixture in a saturated condition included 1 mM NAD(P)^+, 40 mM malate, and 10 mM MgCl2 in 50 mM Tris-HCl (pH 7.4). To determine the Km and kcat values, the concentration of one substrate was varied around its Km values while the concentrations of the other components were fixed at saturated concentrations.
The cooperativity of malate was determined with the following equation: ν=Vmax×[Malate]^h/K0.5h+[Malate]^h where ν is the initial velocity, Vmax is the maximum rate of the reaction, K0.5 is the substrate concentration at half-maximal velocity, and h is the Hill coefficient, which represents the degree of cooperativity.

[6] = protein only, read-out: Kd,12 monomer-dimer dissociation constant
[7] = protein only, read-out: Kd,24 dimer-tetramer dissociation constant
[8] = read-out: Kd,12(ATP), with 0.5 mM ATP
[9] = read-out: Kd,24(ATP), with 0.5 mM ATP
[10] = with 0.4 mM NAD+, read-out: Kd,12(NAD)
[11] = with 0.4 mM NAD+, read-out: Kd,24(NAD)

T1 sequence (P23368 19-584): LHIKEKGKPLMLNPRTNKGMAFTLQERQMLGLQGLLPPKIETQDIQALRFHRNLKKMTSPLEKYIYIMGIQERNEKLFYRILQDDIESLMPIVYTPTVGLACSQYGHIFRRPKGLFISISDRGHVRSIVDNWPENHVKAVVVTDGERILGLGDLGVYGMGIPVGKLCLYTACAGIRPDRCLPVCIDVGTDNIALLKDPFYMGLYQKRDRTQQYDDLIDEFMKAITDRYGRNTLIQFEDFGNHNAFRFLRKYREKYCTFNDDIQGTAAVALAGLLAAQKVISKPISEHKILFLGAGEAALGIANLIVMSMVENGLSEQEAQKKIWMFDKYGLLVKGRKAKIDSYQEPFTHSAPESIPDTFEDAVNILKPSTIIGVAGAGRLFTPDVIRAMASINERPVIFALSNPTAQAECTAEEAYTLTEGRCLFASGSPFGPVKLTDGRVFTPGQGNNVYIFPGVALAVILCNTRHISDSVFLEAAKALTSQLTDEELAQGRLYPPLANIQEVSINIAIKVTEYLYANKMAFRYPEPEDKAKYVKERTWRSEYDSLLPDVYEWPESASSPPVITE

Row | Compound | Kd [4, 6] | Kd [4, 7] | Kd [4, 8] | Kd [4, 9] | Kd [4, 10] | Kd [4, 11] | h (Hill coefficient, malate cooperativity) ([5]; (+) with 5 mM fumarate) | K0.5,malate ([5]; (+) with 5 mM fumarate) | Km ([5]; (+) with 5 mM fumarate) | kcat ([5]; (+) with 5 mM fumarate) | h (Hill coefficient, malate cooperativity) ([5]; (−) without fumarate) | K0.5,malate ([5]; (−) without fumarate) | Km ([5]; (−) without fumarate) | kcat ([5]; (−) without fumarate) | other results
1 | COC(=O)CC(O)C(=O)OC (stereo not shown) [DMM, dimethyl-malate] | – | – | – | – | – | – | – | – | – | – | – | – | – | – | effect on lung tumor growth (lung tumor): suppress lung tumor growth in vivo
2 | O=C(O)c1cc2ccccc2c(Cc2c(O)c(C(=O)O)cc3ccccc23)c1O [EA, Embonic acid] | – | – | – | – | – | – | – | – | – | – | – | – | – | – | effect on cell growth [1]: suppresses the cell growth; effect on cellular senescence [1]: induces the cellular senescence
3 | NC(=O)c1ccc[n+]([C@@H]2O[C@H](COP(=O)([O-])OP(=O)(O)OC[C@H]3O[C@@H](n4cnc5c(N)ncnc54)[C@H](O)[C@@H]3O)[C@@H](O)[C@H]2O)c1 [NAD, NAD^+] | – | – | – | – | – | – | – | – | – | – | – | – | – | – | Kd,24 lower than that of the apoenzyme (m-NAD(P)-ME [2]): 6 fold; dimer-tetramer distribution of the enzyme on native gel (m-NAD(P)-ME [3]): most tetrameric forms
4 | G192A: exosite mutant of human m-NAD(P)-ME | 90 ± 2 nM | 300 ± 1 nM | 210 ± 10 nM | 400 ± 10 nM | 60 ± 2 nM | 180 ± 10 nM | 1.19 ± 0.10 | 2.65 ± 0.18 mM | 320 ± 30 µM | 230.0 ± 4.4 s⁻¹ | 1.30 ± 0.19 | 11.18 ± 2.08 mM | 570 ± 70 µM | 210.6 ± 7.7 s⁻¹ | –
5 | H154V: exosite mutant of human m-NAD(P)-ME | 30 ± 2 nM | 460 ± 3 nM | 460 ± 10 nM | 4030 ± 40 nM | 70 ± 1 nM | 160 ± 1 nM | 1.08 ± 0.05 | 4.94 ± 0.26 mM | 530 ± 40 µM | 140.5 ± 2.5 s⁻¹ | 1.99 ± 0.10 | 15.31 ± 0.51 mM | 970 ± 60 µM | 134.6 ± 2.9 s⁻¹ | kcat compared with the WT value [5]: reduced to half of the WT value
6 | K156A: exosite mutant of human m-NAD(P)-ME | 120 ± 4 nM | 320 ± 10 nM | 320 ± 10 nM | 800 ± 20 nM | 1360 ± 50 nM | 80 ± 3 nM | 1.01 ± 0.10 | 3.56 ± 0.40 mM | 320 ± 30 µM | 223.6 ± 5.1 s⁻¹ | 1.65 ± 0.04 | 10.12 ± 0.21 mM | 650 ± 70 µM | 209.9 ± 6.2 s⁻¹ | –
7 | N482A: exosite mutant of human m-NAD(P)-ME | 290 ± 10 nM | 950 ± 30 nM | 1440 ± 40 nM | 350 ± 10 nM | 580 ± 30 nM | 970 ± 50 nM | 1.04 ± 0.14 | 1.02 ± 0.08 mM | 20 ± 10 µM | 215.6 ± 0.1 s⁻¹ | 1.87 ± 0.70 | 17.43 ± 5.10 mM | 700 ± 170 µM | 169.1 ± 0.6 s⁻¹ | –
8 | N482G: exosite mutant of human m-NAD(P)-ME | 50 ± 10 nM | 180 ± 2 nM | 100 ± 3 nM | 60 ± 2 nM | 380 ± 2 nM | 40 ± 10 nM | 1.00 ± 0.09 | 4.23 ± 0.47 mM | 610 ± 40 µM | 309.7 ± 11.5 s⁻¹ | 1.59 ± 0.14 | 23.81 ± 2.70 mM | 1500 ± 140 µM | 263.2 ± 19.7 s⁻¹ | –
9 | R194N: exosite mutant of human m-NAD(P)-ME | 310 ± 10 nM | 230 ± 10 nM | 80 ± 1 nM | 1440 ± 30 nM | 170 ± 10 nM | 40 ± 1 nM | 1.08 ± 0.08 | 5.11 ± 0.50 mM | 760 ± 70 µM | 227.4 ± 6.1 s⁻¹ | 2.18 ± 0.15 | 19.53 ± 0.91 mM | 1600 ± 160 µM | 204.4 ± 8.3 s⁻¹ | –
10 | R197D: exosite mutant of human m-NAD(P)-ME | 800 ± 20 nM | 260 ± 10 nM | 690 ± 20 nM | 110 ± 3 nM | 60 ± 3 nM | 810 ± 40 nM | 1.06 ± 0.05 | 4.98 ± 0.28 mM | 130 ± 20 µM | 216.0 ± 0.1 s⁻¹ | 1.76 ± 0.23 | 17.82 ± 2.01 mM | 460 ± 50 µM | 206.8 ± 0.1 s⁻¹ | –
11 | R197E: exosite mutant of human m-NAD(P)-ME | 30 ± 1 nM | 2330 ± 80 nM | 100 ± 3 nM | 590 ± 20 nM | 100 ± 3 nM | 1110 ± 40 nM | 1.24 ± 0.10 | 4.55 ± 0.37 mM | 1110 ± 90 µM | 187.6 ± 5.2 s⁻¹ | 1.65 ± 0.30 | 23.37 ± 4.48 mM | 2370 ± 280 µM | 165.2 ± 20.4 s⁻¹ | –
12 | R542V: exosite mutant of human m-NAD(P)-ME | 10 ± 1 nM | 440 ± 10 nM | 20 ± 1 nM | 9870 ± 380 nM | 1870 ± 80 nM | 210 ± 10 nM | 1.06 ± 0.11 | 5.89 ± 0.78 mM | 910 ± 180 µM | 239.3 ± 12.6 s⁻¹ | 1.43 ± 0.09 | 27.00 ± 3.44 mM | 2180 ± 270 µM | 175.6 ± 14.0 s⁻¹ | –
13 | R556Q: exosite mutant of human m-NAD(P)-ME | 10 ± 3 nM | 1750 ± 60 nM | 400 ± 10 nM | 180 ± 10 nM | 180 ± 10 nM | 910 ± 30 nM | 1.20 ± 0.07 | 4.75 ± 0.31 mM | 690 ± 60 µM | 251.8 ± 5.6 s⁻¹ | 1.71 ± 0.27 | 19.01 ± 2.40 mM | 1160 ± 220 µM | 220.5 ± 16.2 s⁻¹ | –
14 | R556V: exosite mutant of human m-NAD(P)-ME | 130 ± 1 nM | 2300 ± 20 nM | 2030 ± 60 nM | 180 ± 10 nM | 600 ± 10 nM | 4070 ± 80 nM | 1.24 ± 0.30 | 1.87 ± 0.26 mM | 360 ± 20 µM | 204.9 ± 9.5 s⁻¹ | 2.35 ± 0.47 | 15.90 ± 1.51 mM | 1080 ± 60 µM | 195.2 ± 12.8 s⁻¹ | –
15 | WT: wild-type human mitochondrial NAD(P)+-dependent malic enzyme (ME2), recombinant from E. coli | 240 ± 2 nM | 350 ± 3 nM | 640 ± 10 nM | 2720 ± 60 nM | 660 ± 10 nM | 50 ± 1 nM | 1.10 ± 0.09 | 2.98 ± 0.21 mM | 390 ± 50 µM | 261.7 ± 6.0 s⁻¹ | 2.41 ± 0.32 | 10.67 ± 0.64 mM | 540 ± 60 µM | 252.0 ± 8.2 s⁻¹ | h (Hill coefficient, malate cooperativity) ([5]; (−) without fumarate, listed as Human m-NAD(P)-ME): approximately 2
